According to patent publication US20090023721A1, “Novel Substituted Tetracyclic Tetrahydrofuran, Pyrrolidine and Tetrahydrothiophene Derivatives and Their Use as a Medicament” (priority 2005, published 2009):
Where two headings read alike, the source gives them in different places.

Key:
[1] = molecular target: T1, human cloned 5-HT2C receptor, expressed in CHO cells (Homo sapiens, UniProt P28335); test: In vitro radioligand binding affinity for 5-HT2C receptor ([3H]mesulergine)
T1 construct: expressed in transfected cells; host or cells: CHO cells
T1 sequence (P28335 33-458): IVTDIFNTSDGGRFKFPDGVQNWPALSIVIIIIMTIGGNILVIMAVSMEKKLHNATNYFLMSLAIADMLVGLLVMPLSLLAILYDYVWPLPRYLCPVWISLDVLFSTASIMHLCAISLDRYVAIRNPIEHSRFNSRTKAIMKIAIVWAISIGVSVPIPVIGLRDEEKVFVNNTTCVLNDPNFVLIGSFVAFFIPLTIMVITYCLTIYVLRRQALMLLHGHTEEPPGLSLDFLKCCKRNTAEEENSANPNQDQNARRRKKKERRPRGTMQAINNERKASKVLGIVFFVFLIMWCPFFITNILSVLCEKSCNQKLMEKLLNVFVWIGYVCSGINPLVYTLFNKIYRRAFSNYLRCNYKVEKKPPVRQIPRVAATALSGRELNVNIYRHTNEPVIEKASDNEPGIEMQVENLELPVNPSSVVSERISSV
Experimental: The interaction of the compounds of Formula (I) with 5-HT2A and 5-HT2C receptors was assessed in in vitro radioligand binding experiments. […] During the incubation, the radioligands bind to the receptor. When equilibrium of binding is reached, the receptor bound radioactivity is separated from the non-bound radioactivity, and the receptor bound activity is counted. The interaction of the test compounds with the receptors is assessed in competition binding experiments. Various concentrations of the test compound are added to the incubation mixture containing the tissue preparation and the radioligand. Binding of the radioligand will be inhibited by the test compound in proportion to its binding affinity and its concentration.

[2] = molecular target: T2, NET (Rattus norvegicus, UniProt Q9WTR4); test: In vitro determination of NET reuptake inhibition ([3H]Nixosetine binding, rat brain cortex membranes)
T2 construct: Cortex from rat brain was collected and homogenised; from tissue; host or cells: rat brain cortex membranes
T2 sequence (Q9WTR4 1-597): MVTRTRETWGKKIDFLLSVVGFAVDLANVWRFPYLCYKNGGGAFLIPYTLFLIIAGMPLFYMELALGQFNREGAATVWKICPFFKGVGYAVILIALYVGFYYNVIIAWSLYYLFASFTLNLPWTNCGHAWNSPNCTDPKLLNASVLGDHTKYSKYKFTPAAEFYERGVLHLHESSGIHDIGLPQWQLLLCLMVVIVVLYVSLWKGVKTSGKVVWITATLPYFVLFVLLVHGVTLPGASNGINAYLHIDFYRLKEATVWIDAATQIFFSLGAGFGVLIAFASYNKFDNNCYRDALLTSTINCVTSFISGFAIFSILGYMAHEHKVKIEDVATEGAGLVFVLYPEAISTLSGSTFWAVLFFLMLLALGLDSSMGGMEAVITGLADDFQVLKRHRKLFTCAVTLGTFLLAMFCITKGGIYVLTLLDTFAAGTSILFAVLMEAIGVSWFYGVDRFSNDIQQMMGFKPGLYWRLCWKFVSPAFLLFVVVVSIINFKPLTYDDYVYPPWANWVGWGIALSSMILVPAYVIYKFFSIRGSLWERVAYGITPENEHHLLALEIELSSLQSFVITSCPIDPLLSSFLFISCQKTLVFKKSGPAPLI
Experimental: Cortex from rat brain was collected and homogenised using an Ultra-Turrax T25 and a Dual homogeniser in ice-cold homogenising buffer containing Tris, NaCl and KCl (50 mM, 120 mM and 5 mM, respectively, pH 7.4) prior to dilution to an appropriate protein concentration optimised for specific and non-specific binding. […] Membrane-bound activity was detected by filtration through a Packard Filtermate harvester onto GF/B Unifilterplates, washed with ice-cold Tris-HCl buffer, containing NaCl and KCl (50 mM, 120 mM and 4 mM; pH 7.4; 6×0.5 ml). Filters were allowed to dry for 24 h before adding scintillation fluid. Scintillation fluid was allowed to saturate filters for 24 h before counting in a Topcount scintillation counter. Percentage specific bound and competition binding curves were calculated using S-Plus software (Insightful).

[3] = molecular target: T3, human cloned 5-HT2A receptor, expressed in L929 cells (Homo sapiens, UniProt P28223); test: In vitro radioligand binding affinity for 5-HT2A receptor ([125I]R91150)
T3 construct: expressed in transfected cells; host or cells: L929 cells
T3 sequence (P28223 whole entry): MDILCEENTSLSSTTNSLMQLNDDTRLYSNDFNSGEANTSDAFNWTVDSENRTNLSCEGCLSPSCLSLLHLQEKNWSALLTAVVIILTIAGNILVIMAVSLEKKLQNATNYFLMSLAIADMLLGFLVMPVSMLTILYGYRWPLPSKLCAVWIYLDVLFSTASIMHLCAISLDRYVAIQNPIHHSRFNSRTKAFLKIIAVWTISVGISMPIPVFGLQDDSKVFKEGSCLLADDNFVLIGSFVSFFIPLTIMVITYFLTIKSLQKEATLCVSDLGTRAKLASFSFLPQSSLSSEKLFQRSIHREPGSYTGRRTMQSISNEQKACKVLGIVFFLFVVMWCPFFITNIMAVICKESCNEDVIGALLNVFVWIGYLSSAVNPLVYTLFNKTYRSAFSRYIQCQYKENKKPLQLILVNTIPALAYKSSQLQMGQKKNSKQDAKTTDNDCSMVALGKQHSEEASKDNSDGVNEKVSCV
Experimental: The interaction of the compounds of Formula (I) with 5-HT2A and 5-HT2C receptors was assessed in in vitro radioligand binding experiments. In general, a low concentration of a radioligand with a high binding affinity for the receptor is incubated with a sample of a tissue preparation enriched in a particular receptor (1 to 5 mg tissue) in a buffered medium (0.2 to 5 ml). During the incubation, the radioligands bind to the receptor. When equilibrium of binding is reached, the receptor bound radioactivity is separated from the non-bound radioactivity, and the receptor bound activity is counted. The interaction of the test compounds with the receptors is assessed in competition binding experiments. Various concentrations of the test compound are added to the incubation mixture containing the tissue preparation and the radioligand. Binding of the radioligand will be inhibited by the test compound in proportion to its binding affinity and its concentration. The affinities of the compounds for the 5-HT2 receptors were measured by means of radioligand binding studies conducted with: (a) human cloned 5-HT2A receptor, expressed in L929 cells using [^125I]R91150 as radioligand and (b) human cloned 5-HT2C receptor, expressed in CHO cells using [^3H]mesulergine as radioligand.

[4] = molecular target: T4, human Dopamine D2L receptor (Homo sapiens, UniProt P14416); test: In vitro binding affinity for human D2L receptor ([3H]Spiperone); conditions: human D2L receptor-transfected CHO cell membranes, [3H]Spiperone; for IC50: read-out: h-D2L (converted)
T4 construct: expressed in transfected cells; host or cells: CHO cells (frozen membranes)
T4 sequence (P14416 whole entry): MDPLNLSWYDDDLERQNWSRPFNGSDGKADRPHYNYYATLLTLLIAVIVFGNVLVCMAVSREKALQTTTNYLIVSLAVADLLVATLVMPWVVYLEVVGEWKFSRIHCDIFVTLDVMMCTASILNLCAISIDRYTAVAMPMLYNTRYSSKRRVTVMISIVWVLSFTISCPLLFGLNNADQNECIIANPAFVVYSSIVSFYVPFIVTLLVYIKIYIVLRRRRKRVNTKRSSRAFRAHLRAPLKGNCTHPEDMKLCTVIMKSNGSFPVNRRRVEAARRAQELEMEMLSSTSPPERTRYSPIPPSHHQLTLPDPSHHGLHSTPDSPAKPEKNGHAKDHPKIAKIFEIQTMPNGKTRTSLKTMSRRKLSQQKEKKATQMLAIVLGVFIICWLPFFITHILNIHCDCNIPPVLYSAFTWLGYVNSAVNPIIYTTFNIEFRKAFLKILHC
Experimental: Frozen membranes of human Dopamine D2L receptor-transfected CHO cells were thawed, briefly homogenised using an Ultra-Turrax T25 homogeniser and diluted in Tris-HCl assay buffer containing NaCl, CaCl2, MgCl2, KCl (50, 120, 2, 1, and 5 mM respectively, adjusted to pH 7.7 with HCl) to an appropriate protein concentration optimised for specific and non-specific binding. Radioligand [^3H]Spiperone (NEN, specific activity ˜70 Ci/mmol) was diluted in assay buffer at a concentration of 2 nmol/L. Prepared radioligand (50 μl), along with 50 μl of either the 10% DMSO control, Butaclamol (10-6 mol/l final concentration), or compound of interest, was then incubated (30 min, 37° C.) with 400 μl of the prepared membrane solution. Membrane-bound activity was filtered through a Packard Filtermate harvester onto GF/B Unifilterplates and washed with ice-cold Tris-HCl buffer (50 mM; pH 7.7; 6×0.5 ml). Filters were allowed to dry before adding scintillation fluid and counting in a Topcount scintillation counter. Percentage specific bound and competition binding curves were calculated using S-Plus software (Insightful).

[5] = human cloned 5-HT2C receptor in CHO cells, [3H]mesulergine, read-out: h-5HT2C (converted)
[6] = human cloned 5-HT2A receptor in L929 cells, [125I]R91150, read-out: h-5HT2A (converted)

SMILES	IC50 [1, 5]	IC50 [2]	IC50 [3, 6]	IC50 [4]	further results
COCCN1[C@@H](CN(C)C)C[C@@H]2c3ccccc3Cc3ccc(F)cc3[C@H]21 [compound 40, [(2R,3aR,12bS)-11-Fluoro-1-(2-methoxyethyl)-1,2,3,3a,8,12b-hexahydrodibenzo-[3,4:6,7]-cyclohepta[1,2-b]pyrrol-2-yl]-N,N-dimethylmethanamine]	263 nM	479 nM	372 nM	> 1000 nM	–
CN1C[C@@H]2C[C@@H]3c4ccccc4Cc4ccc(F)cc4[C@H]3N2C1=O [compound 16, (4aS,13bR,14aS)-6-fluoro-2-methyl-1,4a,9,13b,14,14a-hexahydrodibenzo[3′,4′:6′,7′]-cyclohepta[1′,2′:4,5]pyrrolo[1,2-c]imidazol-3(2H)-one]	> 10000 nM	> 10000 nM	> 10000 nM	> 10000 nM	–
CN(C)CC1CO[C@H]2c3cc(F)ccc3Cc3ccccc3[C@@H]12 (mixture of isomers) [compound 48, [(3aR,12bR)-11-fluoro-3,3a,8,12b-tetrahydro-2H-dibenzo[3,4:6,7]cyclohepta[1,2-b]-furan-3-yl]-N,N-dimethylmethanamine]	3020 nM	224 nM	6170 nM	–	–
O=C1CNC[C@H]2C[C@@H]3c4ccccc4Cc4ccc(F)cc4[C@H]3N12 [compound 12, (5aS,14bR,15aR)-7-fluoro-1,2,3,5a,10,14b,15,15a-octahydro-4H-dibenzo[3′,4′:6′,7′]-cyclohepta[1′,2′:4,5]pyrrolo[1,2-a]pyrazin-4-one]	–	3470 nM	–	832 nM	IC50 [1]: 58.9 nM
CN(C)C[C@H]1C[C@@H]2c3ccccc3Cc3ccc(F)cc3[C@H]2[S@+]1[O-] [compound 28, [(2R,3aR,12bS)-11-fluoro-1-oxido-3,3a,8,12b-tetrahydro-2H-dibenzo[3,4:6,7]cyclohepta[1,2-b]thien-2-yl]-N,N-dimethylmethanamine]	1780 nM	145 nM	7760 nM	–	–
CN(C)C[C@H]1C[C@@H]2c3ccccc3Cc3ccc(F)cc3[C@H]2N1C [compound 5, [(2R,3aR,12bS)-11-fluoro-1-methyl-1,2,3,3a,8,12b-hexahydrodibenzo[3,4:6,7]cyclohepta[1,2-b]pyrrol-2-yl]-N,N-dimethylmethanamine]	5.37 nM	–	27.5 nM	132 nM	–
CN[C@@H]1CO[C@@H]2c3cc(F)ccc3Cc3ccccc3[C@H]2C1 (relative stereo) [compound 35, (3S*,4aR*,13bS*)-12-fluoro-N-methyl-2,3,4,4a,9,13b-hexahydrodibenzo[3,4:6,7]-cyclohepta[1,2-b]pyran-3-amine]	2630 nM	> 1000 nM	–	–	–
Fc1ccc2c(c1)[C@H]1N[C@@H](CN3CCOCC3)C[C@@H]1c1ccccc1C2 [compound 42, (2R,3aR,12bS)-11-fluoro-2-(4-morpholinylmethyl)-1,2,3,3a,8,12b-hexahydrodibenzo-[3,4:6,7]cyclohepta[1,2-b]pyrrole]	550 nM	5500 nM	631 nM	–	–
COC(=O)N1[C@@H](CN(C)C)CC[C@@H]2c3ccccc3Cc3ccc(F)cc3[C@H]21 [compound 45, Methyl (2R,4aR,13bS)-2-[(dimethylamino)methyl]-12-fluoro-2,3,4,4a,9,13b-hexahydro-1H-dibenzo[3,4:6,7]cyclohepta[1,2-b]pyridine-1-carboxylate]	2240 nM	794 nM	–	> 10000 nM	–
CN(C)C[C@@H]1C[C@@H]2c3ccccc3Cc3ccc(F)cc3[C@H]2S1(=O)=O [compound 22, [(2S,3aR,12bS)-11-fluoro-1,1-dioxido-3,3a,8, 12b-tetrahydro-2H-dibenzo[3,4:6,7]-cyclohepta[1,2-b]thien-2-yl]-N,N-dimethylmethanamine]	1350 nM	4790 nM	8510 nM	–	–
CN1CC(=O)N2[C@H](C[C@@H]3c4ccccc4Cc4ccc(F)cc4[C@H]32)C1 [compound 13, (5aS,14bR,15aR)-7-fluoro-2-methyl-1,2,3,5a,10,14b,15,15a-octahydro-4H-dibenzo-[3′,4′:6′,7′]cyclohepta[1′,2′:4,5]pyrrolo[1,2-a]pyrazin-4-one]	–	–	–	–	NET Reuptake Inhibition [2]: <5; IC50 [3]: 87.1 nM
OCCN1CCN(C[C@H]2C[C@@H]3c4ccccc4Cc4ccc(F)cc4[C@H]3N2)CC1 [43a, 2-(4-{[(2R,3aR,12bS)-11-fluoro-1,2,3,3a,8,12b-hexahydrodibenzo[3,4:6,7]cyclohepta-[1,2-b]pyrrol-2-yl]methyl}-1-piperazinyl)ethanol]	407 nM	> 10000 nM	427 nM	–	–
CN(C)CC1CO[C@@H]2c3cc(F)ccc3Cc3ccccc3[C@@H]12 (mixture of isomers) [compound 47, [(3aR,12bS)-11-fluoro-3,3a,8,12b-tetrahydro-2H-dibenzo[3,4:6,7]cyclohepta[1,2-b]-furan-3-yl]-N,N-dimethylmethanamine]	1580 nM	11 nM	3800 nM	–	–
CN(CCO)C[C@H]1C[C@@H]2c3ccccc3Cc3ccc(F)cc3[C@H]2N1 [43b, 2-[{[(2R,3aR,12bS)-11-fluoro-1,2,3,3a,8,12b-exahydrodibenzo[3,4:6,7]cyclohepta[1,2-b]pyrrol-2-yl]methyl}(methyl)amino]-ethanol]	–	–	–	–	h-5HT2C ([1]; human cloned 5-HT2C receptor in CHO cells, [3H]mesulergine): 7.05; h-5HT2A ([3]; human cloned 5-HT2A receptor in L929 cells, [125I]R91150): 7.17; h-D2L [4]: 6.36
OC1CCN(C[C@H]2C[C@@H]3c4ccccc4Oc4ccc(F)cc4[C@H]3N2)C1 (stereo partly drawn) [compound 20, 1-{[(2R,3aR,12bS)-11-fluoro-2,3,3a,12b-tetrahydro-1H-dibenzo[2,3:6,7]oxepino[4,5-b]pyrrol-2-yl]methyl}-3-pyrrolidinol]	110 nM	417 nM	–	355 nM	–
CN(C)C[C@@H]1C[C@@H]2c3ccccc3Cc3ccc(F)cc3[C@H]2[S@+]1[O-] [compound 25, [(2S,3aR,12bS)-11-fluoro-1-oxido-3,3a,8,12b-tetrahydro-2H-dibenzo[3,4:6,7]cyclohepta[1,2-b]thien-2-yl]-N,N-dimethylmethanamine]	2240 nM	2880 nM	> 10000 nM	–	–
OCCN1CCN(C[C@H]2C[C@@H]3c4ccccc4Oc4ccc(F)cc4[C@H]3N2)CC1 [compound 19, 2-(4-{[(2R,3aR,12bS)-11-fluoro-2,3,3a,12b-tetrahydro-1H-dibenzo[2,3 :6,7]oxepino-[4,5-b]pyrrol-2-yl]methyl}-1-piperazinyl)ethanol]	4270 nM	> 10000 nM	–	112 nM	–
